Assay results as given in US8680108B2, “Substituted fused aryl and heteroaryl derivatives as PI3K inhibitors” (Incyte Corporation, priority 2009, dated 2014).
Where two headings read alike, the source gives them in different places. Values belong to the compound of their own block, whether it stands above or below them.

Assays:
[1] = tested on: Pfeiffer cell line (diffuse large B cell lymphoma); assay: Pfeiffer cell proliferation assay; format: cell-based
Protocol: Pfeiffer cell line (diffuse large B cell lymphoma) was purchased from ATCC (Manassas, Va.) and maintained in the culture medium recommended (RPMI and 10% FBS). To measure the anti-proliferation activity of the compounds, the Pfeiffer cells were plated with the culture medium (2×10^3 cells/well/per 200 μl) into 96-well ultra-low binding plates (Corning, Corning, N.Y.), in the presence or absence of a concentration range of test compounds. […]

PI3Kδ (p110δ/p85α) = target: T1, PI3Kδ (p110δ/p85α) (Homo sapiens, UniProt O00329); assay: PI3Kδ scintillation proximity assay; format: biochemical
T1 construct: purchased Millipore (Bedford, Mass.)
T1 sequence (O00329 whole entry): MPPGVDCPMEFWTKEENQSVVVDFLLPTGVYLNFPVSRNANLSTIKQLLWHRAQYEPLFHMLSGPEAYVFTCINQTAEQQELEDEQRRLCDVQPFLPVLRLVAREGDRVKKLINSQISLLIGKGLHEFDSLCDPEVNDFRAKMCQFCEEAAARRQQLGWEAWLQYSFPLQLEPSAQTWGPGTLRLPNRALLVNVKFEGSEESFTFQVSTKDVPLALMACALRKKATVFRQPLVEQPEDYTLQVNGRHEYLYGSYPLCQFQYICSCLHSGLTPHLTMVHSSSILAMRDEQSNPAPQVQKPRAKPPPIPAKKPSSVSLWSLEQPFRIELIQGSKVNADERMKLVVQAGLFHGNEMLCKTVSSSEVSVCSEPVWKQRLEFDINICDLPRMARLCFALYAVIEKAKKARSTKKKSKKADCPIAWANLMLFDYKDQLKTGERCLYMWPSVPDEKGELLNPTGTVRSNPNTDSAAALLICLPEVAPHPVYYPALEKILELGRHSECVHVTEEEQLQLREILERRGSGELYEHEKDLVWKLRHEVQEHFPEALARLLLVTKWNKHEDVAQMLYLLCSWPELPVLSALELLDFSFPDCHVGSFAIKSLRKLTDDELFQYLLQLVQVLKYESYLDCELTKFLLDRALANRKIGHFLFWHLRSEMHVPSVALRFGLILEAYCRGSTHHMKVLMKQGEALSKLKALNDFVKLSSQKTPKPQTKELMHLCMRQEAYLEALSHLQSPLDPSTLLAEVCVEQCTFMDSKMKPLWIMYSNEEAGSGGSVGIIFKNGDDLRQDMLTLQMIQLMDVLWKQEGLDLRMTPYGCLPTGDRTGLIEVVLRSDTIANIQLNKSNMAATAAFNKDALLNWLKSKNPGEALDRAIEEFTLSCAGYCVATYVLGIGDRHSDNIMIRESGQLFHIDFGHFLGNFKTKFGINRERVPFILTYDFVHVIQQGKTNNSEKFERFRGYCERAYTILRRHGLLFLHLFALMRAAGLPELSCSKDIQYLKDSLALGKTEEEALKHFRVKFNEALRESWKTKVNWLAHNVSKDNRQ
T1 sequence (P27986 whole entry partner): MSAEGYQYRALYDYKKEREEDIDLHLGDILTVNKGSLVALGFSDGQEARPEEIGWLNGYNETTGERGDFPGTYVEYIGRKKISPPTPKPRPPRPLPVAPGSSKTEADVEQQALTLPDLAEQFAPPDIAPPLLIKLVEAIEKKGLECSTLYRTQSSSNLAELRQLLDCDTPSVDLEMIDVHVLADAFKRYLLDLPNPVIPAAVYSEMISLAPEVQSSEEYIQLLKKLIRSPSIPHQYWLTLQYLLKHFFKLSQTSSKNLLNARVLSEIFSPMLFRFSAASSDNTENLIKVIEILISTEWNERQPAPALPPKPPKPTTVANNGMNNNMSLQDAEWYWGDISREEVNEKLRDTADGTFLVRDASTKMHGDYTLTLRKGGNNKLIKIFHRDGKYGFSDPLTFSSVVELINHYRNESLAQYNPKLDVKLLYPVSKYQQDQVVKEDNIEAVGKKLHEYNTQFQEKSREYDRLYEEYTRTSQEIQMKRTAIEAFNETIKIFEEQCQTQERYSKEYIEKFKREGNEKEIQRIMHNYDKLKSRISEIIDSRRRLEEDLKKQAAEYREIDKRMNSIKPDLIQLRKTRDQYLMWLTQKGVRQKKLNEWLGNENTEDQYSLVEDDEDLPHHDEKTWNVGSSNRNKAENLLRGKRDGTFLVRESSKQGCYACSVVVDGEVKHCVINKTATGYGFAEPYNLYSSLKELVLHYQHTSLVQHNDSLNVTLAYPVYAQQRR
Procedure, shortened: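 Purified p110δ/p85α (4 nM) phosphorylated 20 μM diC8-PIP2 with 20 μM ATP plus [γ-33P]ATP in MOPS pH 6.7, MgCl2, DTT, CHAPS, 0.5% DMSO, 210 minutes at room temperature. Stopped with EDTA/ATP quench containing WGA SPA beads; scintillation counted. IC50 from percent control activity versus log inhibitor concentration.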

[2] = Homo sapiens, Pfeiffer, second of two isolated isomers

IC50 [1, 2]: 500 to 1000 nM
IC50 (PI3Kδ (p110δ/p85α); separated isomer, 1st peak): > 1000 nM
IC50 (PI3Kδ (p110δ/p85α); separated isomer, 2nd peak): < 50 nM
SMILES: CC(C)C(=O)N[C@H]1CCN(c2c(C(C)Nc3ncnc4[nH]cnc34)cc(Cl)c3cccnc23)C1 (stereo partly drawn) [Example 78, N-((3S)-1-{5-Chloro-7-[1-(9H-purin-6-ylamino)ethyl]quinolin-8-yl}pyrrolidin-3-yl)-2-methylpropanamide tris(trifluoroacetate)]

IC50 [1, 2]: 100 to 250 nM
IC50 (PI3Kδ (p110δ/p85α); separated isomer, 1st peak): 250 to 500 nM
IC50 (PI3Kδ (p110δ/p85α); separated isomer, 2nd peak): < 50 nM
SMILES: CC(Nc1ncnc2[nH]cnc12)c1cc(Cl)c2cccnc2c1N1CC[C@H](NS(C)(=O)=O)C1 (stereo partly drawn) [Example 80, N-((3S)-1-{5-Chloro-7-[1-(9H-purin-6-ylamino)ethyl]quinolin-8-yl}pyrrolidin-3-yl)methanesulfonamide tris(trifluoroacetate)]

IC50 (PI3Kδ (p110δ/p85α)): < 50 nM
SMILES: CC(Nc1ncnc2[nH]cnc12)c1cc(Cl)c2cccnc2c1N1CCN(C(=O)c2ccncc2)CC1 (stereo not drawn) [Example 98, N-{1-[5-Chloro-8-(4-isonicotinoylpiperazin-1-yl)quinolin-7-yl]ethyl}-9H-purin-6-amine tris(trifluoroacetate)]

IC50 (PI3Kδ (p110δ/p85α)): 50 to 100 nM
SMILES: COC1CCN(c2c(C(C)Nc3ncnc4[nH]cnc34)cc(Cl)c3cccnc23)CC1 (stereo not drawn) [Example 71, N-{1-[5-Chloro-8-(4-methoxypiperidin-1-yl)quinolin-7-yl]ethyl}-9H-purin-6-amine bis(trifluoroacetate)]

IC50 (PI3Kδ (p110δ/p85α)): 250 to 500 nM
SMILES: CC(Nc1ncnc2[nH]cnc12)c1cc(Cl)c2cccnc2c1N1CCN(C(=O)c2ccccc2F)CC1 (stereo not drawn) [Example 93, N-(1-{5-Chloro-8-[4-(2-fluorobenzoyl)piperazin-1-yl]quinolin-7-yl}ethyl)-9H-purin-6-amine bis(trifluoroacetate)]

IC50 (PI3Kδ (p110δ/p85α)): 50 to 100 nM
SMILES: CC(Nc1ncnc2[nH]cnc12)c1cc(Cl)c2cccnc2c1N1CCC(N2CCCCC2)CC1 (stereo not drawn) [Example 70, N-{1-[8-(1,4′-Bipiperidin-1′-yl)-5-chloroquinolin-7-yl]ethyl}-9H-purin-6-amine tris(trifluoroacetate)]

The next lines start with the compound.

SMILES: Cc1cc(C(C)Nc2ncnc3[nH]cnc23)c(-c2cccc(F)c2)c2nnccc12 (single isomer, unassigned) [Example 36, N-{1-[8-(3-fluorophenyl)-5-methylcinnolin-7-yl]ethyl}-9H-purin-6-amine]
IC50 ([1]; [3H]-thymidine incorporation): < 50 nM
IC50 (PI3Kδ (p110δ/p85α)): < 50 nM

SMILES: COC1CCN(c2c(C(C)Nc3ncnc4[nH]cnc34)cc(Cl)c3cccnc23)C1 (stereo not drawn) [Example 68, N-{1-[5-Chloro-8-(3-methoxypyrrolidin-1-yl)quinolin-7-yl]ethyl}-9H-purin-6-amine tris(trifluoroacetate)]
IC50 ([1]; Homo sapiens, Pfeiffer, first of two isolated isomers): 100 to 250 nM
IC50 [1, 2]: 50 to 100 nM
IC50 (PI3Kδ (p110δ/p85α); separated isomer, 1st peak): 50 to 100 nM
IC50 (PI3Kδ (p110δ/p85α); separated isomer, 2nd peak): < 50 nM

SMILES: CC(Nc1nc(N)nc2[nH]cnc12)c1cc(F)c2ccnnc2c1-c1cccc(F)c1 (single isomer, unassigned) [Example 22, N(6)-{1-[5-Fluoro-8-(3-fluorophenyl)cinnolin-7-yl]ethyl}-9H-purine-2,6-diamine]
IC50 (PI3Kδ (p110δ/p85α)): < 50 nM

SMILES: CC(Nc1ncnc2[nH]cnc12)c1cc(Cl)c2ccnnc2c1-c1cc(F)cc(F)c1 (single isomer, unassigned) [Example 23, N-{1-[5-Chloro-8-(3,5-difluorophenyl)cinnolin-7-yl]ethyl}-9H-purin-6-amine]
IC50 (PI3Kδ (p110δ/p85α)): < 50 nM

SMILES: CCC(Nc1ncnc2[nH]cnc12)c1cc(Cl)c2ccnnc2c1-c1cccc(F)c1 (single isomer, unassigned) [Example 32, N-{1-[5-chloro-8-(3-fluorophenyl)cinnolin-7-yl]propyl}-9H-purin-6-amine]
IC50 (PI3Kδ (p110δ/p85α)): > 1000 nM

SMILES: CC(Nc1ncnc2[nH]cnc12)c1cc(Cl)c2ccnnc2c1-c1cc(F)cc(F)c1 (single isomer, unassigned) [Example 24, N-{1-[5-Chloro-8-(3,5-difluorophenyl)cinnolin-7-yl]ethyl}-9H-purin-6-amine]
IC50 (PI3Kδ (p110δ/p85α)): > 1000 nM

SMILES: CC(Nc1ncnc2[nH]cnc12)c1ccc2cccnc2c1-c1cc(F)cc(F)c1 (stereo not drawn) [Example 6, N-{1-[8-(3,5-difluorophenyl)quinolin-7-yl]ethyl}-9H-purin-6-amine bis-trifluoroacetate]
IC50 (PI3Kδ (p110δ/p85α)): 500 to 1000 nM
